The test system of this assay is histamine induced paw oedema. In words: Histamine induced paw oedema. It is filed as in vivo, rat (male Sprague-Dawley). The following applies: ip, intraperitoneally 15 minutes before the anaesthetics, paw swelling 20 minutes after histamine, rat. Here is the method: Compounds of formula I may be used to treat all painful, hyperalgesic and/or inflammatory conditions in which C-fibres play a pathophysiological role by eliciting neurogenic pain or inflammation, i.e.: The rat histamine paw oedema test was performed essentially as described by Amann et al. (Europ. J. Pharmacol. 279, 227-231, 1995). In brief 250-300 g male Sprague-Dawley rats were anaesthetized with pentobarbital sodium, and placed on a 32 degree Celsius heated table. Ten minutes later histamine (50 micoliter, 3 mg/ml) was injected in the right hind paw and 20 minutes hereafter the paw swelling was determined by water plethysmography (Ugo Basile). Test compounds were administered intraperitoneally at 15 minutes before the anaesthetics.

Structures can show the parent of a compound that is named as a salt.

Regarding `O=C(O)CCN1CCC(CN2c3ccccc3CCc3ccccc32)C1` (stereo not shown) [Example 1, 3-(3-(10,11-Dihydro-5H-dibenzo[b,f]azepin-5-ylmethyl)-pyrrolidin-1-yl)-propionic acid hydrochloride], the inhibition (usually the share of the control response that was lost under treatment) at 1 mg/kg is 56%.

The record behind these values is US6214816A, “Heterocyclic compounds” (Novo Nordisk A/S, priority 1998, dated 2001).
